Source: US10450316B2, “Certain protein kinase inhibitor” (Chongqing Fochon Pharmaceutical Co., Ltd., priority 2015, dated 2019)

System: BE(2)-C cell
Assay: Cell proliferation assay (MTS) in BE(2)-C cells
Assay type: cell-based
Conditions: Homo sapiens, inhibition of BE(2)-C cell proliferation, 48 h
Method: MTS testing kit was purchased from Promega. The DMEM, Fetal bovine serum and Penicillin-Streptomycin were purchased from Gibco. Dimethyl sulfoxide (DMSO) was purchased from Sigma.
To investigate whether a compound is able to inhibit the activity of CDK4/6 in cells, mechanism-based assays using BE(2)-C cell (ATCC® number:CRL-2268) were developed. In the assay, inhibition of CDK4/6 was detected by the inhibition of BE(2)-C cell cells proliferation. BE(2)-C cell cells were cultured in culture flasks to 40-80% confluence in DMEM plus 10% fetal bovine serum. Cells were collected and plated onto 96-well plates at cell density of 3000 cells/well. Plates were incubated overnight at 37° C., with 5% CO2 to adhere. Compounds were added to the plates, the final compound concentrations were 10000, 3333, 1111, […], 123.5, 41.2, 13.7, 4.6 and 1.5 nM. Place plates at 37° C., with 5% CO2 for 48 h. After removing the medium, 20 μl MTS/100 μl medium mixture solution were added to each well and incubate the plates for exactly 2 hours. The reaction was terminated by adding 25 μl 10% SDS per well. Measure absorbance at 490 nm and 650 nm (reference wavelength). IC50 was calculated using GraphPad Prism 5.0.
Select compounds prepared as described above were assayed according to the biological procedures described herein. “++++” stands for IC50 value below about 10 nM. “+++” stands for IC50 value between greater than about 10 nM to about 100 nM. “++” stands for IC50 value between greater than about 100 nM to about […]. “+” stands for IC50 value greater than 1 μM.

## CCN1CCN(Cc2ccc(Nc3ncc(F)c(-c4cc(F)c5nc6n(c5c4)[C@@H](C(F)F)CC6)n3)nc2)CC1 [Example 154, (R)-4-(1-(difluoromethyl)-5-fluoro-2,3-dihydro-1H-benzo[d]pyrrolo[1,2-a]imidazol-7-yl)-N-(5-((4-ethylpiperazin-1-yl)methyl)pyridin-2-yl)-5-fluoropyrimidin-2-amine]
  IC50: > 1 µM

## O[C@@H]1C[C@H]2CN(Cc3ccc(Nc4ncc(F)c(-c5cc(F)c6nc7n(c6c5)C5(CC7)CC5)n4)nc3)CCN2C1 [Example 146, (7R,8aS)-2-((6-((5-fluoro-4-(5-fluoro-2,3-dihydro-spiro[benzo[d]pyrrolo[1,2-a]imidazole-1,1′-cyclo-propan]-7-yl)pyrimidin-2-yl)amino)pyridin-3-yl)methyl)octahydropyrrolo[1,2-a]pyrazin-7-ol]
  IC50: > 1 µM

## CCN1CCC2(CC1)CN(Cc1ccc(Nc3ncc(F)c(-c4cc(F)c5nc6n(c5c4)C(C)(C)CC6)n3)nc1)C2 [Example 113, N-(5-((7-ethyl-2,7-diazaspiro[3.5]nonan-2-yl)methyl)pyridin-2-yl)-5-fluoro-4-(5-fluoro-1,1-dimethyl-2,3-dihydro-1H-benzo[d]pyrrolo[1,2-a]imidazol-7-yl)pyrimidin-2-amine]
  IC50: < 0.01 µM

## Fc1cnc(Nc2ccc(CN3CC4CNCC4C3)cn2)nc1-c1cc(F)c2nc3n(c2c1)[C@H](C(F)F)CC3 (stereo partly drawn) [Example 48, 4-((S)-1-(difluoromethyl)-5-fluoro-2,3-dihydro-1H-benzo[d]pyrrolo[1,2-a]imidazol-7-yl)-5-fluoro-N-(5-((hexahydropyrrolo[3,4-c]pyrrol-2(1H)-yl)methyl)pyridin-2-yl)pyrimidin-2-amine]
  IC50: > 0.1 µM

## C[C@@H]1CCc2nc3c(F)cc(-c4nc(Nc5ccc(CN6C7CCC6CN(C)C7)cn5)ncc4F)cc3n21 [Example 102, 5-fluoro-4-((R)-5-fluoro-1-methyl-2,3-dihydro-1H-benzo[d]pyrrolo[1,2-a]imidazol-7-yl)-N-(5-((3-methyl-3,8-diazabicyclo[3.2.1]octan-8-yl)methy1)pyridin-2-yl)pyrimidin-2-amine]
  IC50: 0.01 to 0.1 µM

## CCN1CC2(C1)CN(Cc1ccc(Nc3ncc(F)c(-c4cc(F)c5nc6n(c5c4)[C@H](C)CC6)n3)nc1)C2 [Example 97, (R)-N-(5-((6-ethyl-2,6-diazaspiro[3.3]heptan-2-yl)methyl)pyridin-2-yl)-5-fluoro-4-(5-fluoro-1-methyl-2,3-dihydro-1H-benzo[d]pyrrolo[1,2-a]imidazol-7-yl)pyrimidin-2-amine]
  IC50: 0.01 to 0.1 µM

## CC1(C)CCc2nc3c(F)cc(-c4cc(Nc5ncc(CN6CCNCC6)cn5)ncc4F)cc3n21 [Example 164, N-(5-fluoro-4-(5-fluoro-1,1-dimethyl-2,3-dihydro-1H-benzo[d]pyrrolo[1,2-a]imidazol-7-yl)pyridin-2-yl)-5-(piperazin-1-ylmethyl)pyrimidin-2-amine]
  IC50: 0.01 to 0.1 µM

## COC[C@@H]1CCc2nc3c(F)cc(-c4nc(Nc5ccc(CN6CCN(C)CC6)cn5)ncc4F)cc3n21 [Example 8, (S)-5-fluoro-4-(5-fluoro-1-(methoxymethyl)-2,3-dihydro-1H-benzo[d]pyrrolo[1,2-a]imidazol-7-yl)-N-(5-((4-methylpiperazin-1-yl)methyl)pyridin-2-yl)pyrimidin-2-amine]
  IC50: > 0.1 µM

## CN1CCC2(CC1)CN(Cc1ccc(Nc3ncc(F)c(-c4cc(F)c5nc6n(c5c4)[C@H](CF)CC6)n3)nc1)C2 [Example 21, (S)-5-fluoro-4-(5-fluoro-1-(fluoromethyl)-2,3-dihydro-1H-benzo[d]pyrrolo[1,2-a]imidazol-7-yl)-N-(5-((7-methyl-2,7-diazaspiro[3.5]nonan-2-yl)methyl)pyridin-2-yl)pyrimidin-2-amine]
  IC50: > 0.1 µM

## C[C@@H]1CCc2nc3c(F)cc(-c4nc(Nc5ccc(CN6CCC7(CCNCC7)CC6)cn5)ncc4F)cc3n21 [Example 92, (R)-N-(5-((3,9-diazaspiro[5.5]undecan-3-yl)methyl)pyridin-2-yl)-5-fluoro-4-(5-fluoro-1-methyl-2,3-dihydro-1H-benzo[d]pyrrolo[1,2-a]imidazol-7-yl)pyrimidin-2-amine]
  IC50: > 0.1 µM

## C[C@@]12CNC[C@]1(C)CN(Cc1ccc(Nc3ncc(F)c(-c4cc(F)c5nc6n(c5c4)C4(CC6)CC4)n3)nc1)C2 [Example 138, N-(5-(((3aR,6aS)-3a,6a-dimethylhexahydro-pyrrolo[3,4-c]pyrrol-2(1H)-yl)methyl)pyridin-2-yl)-5-fluoro-4-(5-fluoro-2,3-dihydro-spiro[benzo[d]pyrrolo[1,2-a]imidazole-1,1′-cyclopropan]-7-yl)pyrimidin-2-amine]
  IC50: > 1 µM

## Fc1cnc(Nc2ccc(CN3CCNCC3)cn2)nc1-c1cc(F)c2nc3n(c2c1)C1(CC3)CC1 [Example 13, 5-fluoro-4-(5-fluoro-2,3-dihydrospiro[benzo[d]pyrrolo[1,2-a]imidazole-1,1′-cyclopropan]-7-yl)-N-(5-(piperazin-1-ylmethyl)pyridin-2-yl)pyrimidin-2-amine]
  IC50: > 0.1 µM

## CCN1CC2(CCN(Cc3ccc(Nc4ncc(F)c(-c5cc(F)c6nc7n(c6c5)C(C)(C)CC7)n4)nc3)CC2)C1 [Example 116, N-(5-((2-ethyl-2,7-diazaspiro[3.5]nonan-7-yl)methyl)pyridin-2-yl)-5-fluoro-4-(5-fluoro-1,1-dimethyl-2,3-dihydro-1H-benzo[d]pyrrolo[1,2-a]imidazol-7-yl)pyrimidin-2-amine]
  IC50: 0.01 to 0.1 µM

## CCN1C2CCC1CN(Cc1ccc(Nc3ncc(F)c(-c4cc(F)c5nc6n(c5c4)[C@H](C(F)(F)F)CC6)n3)nc1)C2 [Example 81, N-(5-((8-ethyl-3,8-diazabicyclo[3.2.1]octan-3-yl)methyl)pyridin-2-yl)-5-fluoro-4-((S)-5-fluoro-1-(trifluoromethyl)-2,3-dihydro-1H-benzo[d]pyrrolo [1,2-a]imidazol-7-yl)pyrimidin-2-amine]
  IC50: 0.01 to 0.1 µM

## C[C@@H]1CCc2nc3c(F)cc(-c4nc(Nc5ccc(CN6CC7(CNC7)C6)cn5)ncc4F)cc3n21 [Example 95, (R)-N-(5-((2,6-diazaspiro[3.3]heptan-2-yl)methyl)pyridin-2-yl)-5-fluoro-4-(5-fluoro-1-methyl-2,3-dihydro-1H-benzo[d]pyrrolo[1,2-a]imidazol-7-yl)pyrimidin-2-amine]
  IC50: > 1 µM

## CN1C2CCC1CN(Cc1ccc(Nc3ncc(F)c(-c4cc(F)c5nc6n(c5c4)[C@H](CF)CC6)n3)nc1)C2 [Example 36, 5-fluoro-4-((5)-5-fluoro-1-(fluoromethyl)-2,3-dihydro-1H-benzo[d]pyrrolo[1,2-a]imidazol-7-yl)-N-(5-((8-methyl-3,8-diazabicyclo[3.2.1]octan-3-yl)methyl)pyridin-2-yl)pyrimidin-2-amine]
  IC50: > 0.1 µM

## Fc1cnc(Nc2ccc(CN3CC4(CNC4)C3)cn2)nc1-c1cc(F)c2nc3n(c2c1)[C@H](C(F)F)CC3 [Example 45, (S)-N-(5-((2,6-diazaspiro[3.3]heptan-2-yl)methyl)pyridin-2-yl)-4-(1-(difluoromethyl)-5-fluoro-2,3-dihydro-1H-benzo[d]pyrrolo[1,2-a]imidazol-7-yl)-5-fluoropyrimidin-2-amine]
  IC50: > 1 µM

## CCN1CCC2(CC1)CCN(Cc1ccc(Nc3ncc(F)c(-c4cc(F)c5nc6n(c5c4)[C@H](C(F)(F)F)CC6)n3)nc1)CC2 [Example 72, (S)-N-(5-((9-ethyl-3,9-diazaspiro[5.5]undecan-3-yl)methyl)pyridin-2-yl)-5-fluoro-4-(5-fluoro-1-(trifluoromethyl)-2,3-dihydro-1H-benzo[d]pyrrolo [1,2-a]imidazol-7-yl)pyrimidin-2-amine]
  IC50: 0.01 to 0.1 µM

## Fc1cnc(Nc2ccc(CN3CC4CC(C3)N4)cn2)nc1-c1cc(F)c2nc3n(c2c1)C1(CC3)CC1 [Example 132, N-(5-((3,6-diazabicyclo[3.1.1]heptan-3-yl)methyl)pyridin-2-yl)-5-fluoro-4-(5-fluoro-2,3-dihydrospiro[benzo[d]pyrrolo[1,2-a]imidazole-1,1′-cyclopropan]-7-yl)pyrimidin-2-amine]
  IC50: > 0.1 µM

## C[C@@H]1CCc2nc3c(F)cc(-c4nc(Nc5ccc(CN6CC7CN(C)CC7C6)cn5)ncc4F)cc3n21 (stereo partly drawn) [Example 99, 5-fluoro-4-((R)-5-fluoro-1-methyl-2,3-dihydro-1H-benzo[d]pyrrolo[1,2-a]imidazol-7-yl)-N-(5-((5-methylhexahydropyrrolo[3,4-c]pyrrol-2(1H)-yl)methyl)pyridin-2-yl)pyrimidin-2-amine]
  IC50: 0.01 to 0.1 µM

## Fc1cnc(Nc2ccc(CN3CCC4(CC3)CNC4)cn2)nc1-c1cc(F)c2nc3n(c2c1)[C@H](C(F)(F)F)CC3 [Example 64, (S)-N-(5-((2,7-diazaspiro[3.5]nonan-7-yl)methyl)pyridin-2-yl)-5-fluoro-4-(5-fluoro-1-(trifluoro-methyl)-2,3-dihydro-1H-benzo[d]pyrrolo[1,2-a]imidazol-7-yl)pyrimidin-2-amine]
  IC50: > 0.1 µM

## CCN1CCC2(CC1)CCN(Cc1ccc(Nc3ncc(F)c(-c4cc(F)c5nc6n(c5c4)[C@H](C)CC6)n3)nc1)CC2 [Example 94, (R)-N-(5-((9-ethyl-3,9-diazaspiro[5.5]undecan-3-yl)methyl)pyridin-2-yl)-5-fluoro-4-(5-fluoro-1-methyl-2,3-dihydro-1H-benzo[d]pyrrolo[1,2-a]imidazol-7-yl)pyrimidin-2-amine]
  IC50: > 0.1 µM
